The supplement of paper PMC11451515

Assays:
Conditions in all cases: 48 h
[1] = tested on: P12-Ichikawa; assay: cell viability relative to DMSO control; higher = less cytotoxic
Method in brief: (§1)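 NOMO1 or SEM cells were plated at 500 cells/well and P12-Ichikawa cells at 1000 cells/well in 1536-well plates (5 μl), after each leukemia line had been adapted for at least four passages in each medium. Pin dosing delivered library compounds in DMSO at 11 threefold concentrations, 47 μM to 0.79 nM. CellTiter-Glo One luminescence was read after 48 h at 37°C. Viability is reported as a per-plate percentage of DMSO wells, with cell-free wells as background.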

[2] = tested on: NOMO1; assay: as above
Method in brief: as §1

[3] = tested on: SEM cells; assay: as above
Method in brief: as §1

[4] = tested on: P12-Ichikawa; assay: AUC of viability dose-response curve (% viability x log10 dose units); higher = less sensitive
Method in brief: (§2)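 Over 48 h at 37°C, leukemia cells in 1536-well plates (500 or 1000 cells/well), adapted to each medium, received library compounds in DMSO at 11 threefold doses from 47 μM to 0.79 nM. CellTiter-Glo One luminescence, normalised per plate to DMSO and cell-free wells, was fitted by a four-parameter log-logistic function of log10 dose. The area under the curve was then integrated by trapezoidal rule, after scaling curves above full viability and removing those that failed quality control.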

[5] = tested on: NOMO1; assay: as above
Method in brief: as §2

[6] = tested on: SEM cells; assay: as above
Method in brief: as §2

O=C1N\C=N/C2=C1C=N[NH]2
cell viability [%]
Conditions | [1] | [2] | [3]
HPLM + 10% dialyzed FBS, 0.000781 µM | 83.8 | 89.6 | 74.3
HPLM + 10% dialyzed FBS, 0.00234 µM | 89.6 | 88.4 | 77.4
HPLM + 10% dialyzed FBS, 0.00702 µM | 83.5 | 96.1 | 74
HPLM + 10% dialyzed FBS, 0.0211 µM | 92.1 | 97 | 95.1
HPLM + 10% dialyzed FBS, 0.0632 µM | 83.9 | 97.5 | 70.6
HPLM + 10% dialyzed FBS, 0.19 µM | 93.2 | 86.8 | 90.7
HPLM + 10% dialyzed FBS, 0.569 µM | 91.1 | 97.1 | 77.2
HPLM + 10% dialyzed FBS, 1.71 µM | 87.6 | 103 | 22.6
HPLM + 10% dialyzed FBS, 5.12 µM | 72.4 | 101 | 93.8
HPLM + 10% dialyzed FBS, 15.4 µM | 77.8 | 67.1 | 94.5
HPLM + 10% dialyzed FBS, 46.1 µM | 25.4 | 30 | 41.9
RPMI 5 mM glucose + 10% FBS, 0.000781 µM | 83.9 | 77.9 | 70.2
RPMI 5 mM glucose + 10% FBS, 0.00234 µM | 91.4 | 87.3 | 79
RPMI 5 mM glucose + 10% FBS, 0.00702 µM | 84 | 83 | 69.4
RPMI 5 mM glucose + 10% FBS, 0.0211 µM | 87.9 | 95.4 | 90.4
RPMI 5 mM glucose + 10% FBS, 0.0632 µM | 80.6 | 94.9 | 62.5
RPMI 5 mM glucose + 10% FBS, 0.19 µM | 81.7 | 81.7 | 91.7
RPMI 5 mM glucose + 10% FBS, 0.569 µM | 82.8 | 86.5 | 81.2
RPMI 5 mM glucose + 10% FBS, 1.71 µM | 79.1 | 93 | 20.2
RPMI 5 mM glucose + 10% FBS, 5.12 µM | 84.2 | 94.3 | 81.6
RPMI 5 mM glucose + 10% FBS, 15.4 µM | 84.4 | 91.5 | 88.8
RPMI 5 mM glucose + 10% FBS, 46.1 µM | 67.3 | 81 | 71.8
RPMI 5 mM glucose + 10% dialyzed FBS, 0.000781 µM | 81.7 | 71.6 | 74.8
RPMI 5 mM glucose + 10% dialyzed FBS, 0.00234 µM | 86.2 | 78.3 | 86.2
RPMI 5 mM glucose + 10% dialyzed FBS, 0.00702 µM | 79.1 | 69.5 | 81.4
RPMI 5 mM glucose + 10% dialyzed FBS, 0.0211 µM | 88.7 | 84.8 | 104
RPMI 5 mM glucose + 10% dialyzed FBS, 0.0632 µM | 78.7 | 70.8 | 79.1
RPMI 5 mM glucose + 10% dialyzed FBS, 0.19 µM | 79.3 | 91.3 | 99.2
RPMI 5 mM glucose + 10% dialyzed FBS, 0.569 µM | 90.5 | 83.2 | 82.1
RPMI 5 mM glucose + 10% dialyzed FBS, 1.71 µM | 85.2 | 88.6 | 32.9
RPMI 5 mM glucose + 10% dialyzed FBS, 5.12 µM | 87.1 | 89.1 | 96.1
RPMI 5 mM glucose + 10% dialyzed FBS, 15.4 µM | 85.2 | 81.2 | 86.7
RPMI 5 mM glucose + 10% dialyzed FBS, 46.1 µM | 68 | 71.9 | 47.4

AUC of viability dose-response curve
Conditions | [4] | [5] | [6]
HPLM + 10% dialyzed FBS | 393 | 425 | 359
RPMI 5 mM glucose + 10% FBS | 397 | 421 | 350
RPMI 5 mM glucose + 10% dialyzed FBS | 398 | 382 | 384

Oc1c(Cl)cc(Cl)c2cccnc12
cell viability [%]
Conditions | [1] | [2] | [3]
HPLM + 10% dialyzed FBS, 0.000781 µM | 107 | 102 | 112
HPLM + 10% dialyzed FBS, 0.00234 µM | 112 | 113 | 77
HPLM + 10% dialyzed FBS, 0.00702 µM | 109 | 115 | 121
HPLM + 10% dialyzed FBS, 0.0211 µM | 100 | 93.6 | 104
HPLM + 10% dialyzed FBS, 0.0632 µM | 105 | 97.4 | 109
HPLM + 10% dialyzed FBS, 0.19 µM | 107 | 92.6 | 120
HPLM + 10% dialyzed FBS, 0.569 µM | 112 | 113 | 122
HPLM + 10% dialyzed FBS, 1.71 µM | 103 | 91.4 | 108
HPLM + 10% dialyzed FBS, 5.12 µM | 109 | 96.2 | 104
HPLM + 10% dialyzed FBS, 15.4 µM | 97.4 | 111 | 66.3
HPLM + 10% dialyzed FBS, 46.1 µM | 70.6 | 81.6 | 12.3
RPMI 5 mM glucose + 10% FBS, 0.000781 µM | 100 | 91.7 | 108
RPMI 5 mM glucose + 10% FBS, 0.00234 µM | 95.4 | 69.2 | 102
RPMI 5 mM glucose + 10% FBS, 0.00702 µM | 109 | 105 | 94
RPMI 5 mM glucose + 10% FBS, 0.0211 µM | 107 | 94.3 | 103
RPMI 5 mM glucose + 10% FBS, 0.0632 µM | 108 | 92.6 | 102
RPMI 5 mM glucose + 10% FBS, 0.19 µM | 102 | 98.4 | 113
RPMI 5 mM glucose + 10% FBS, 0.569 µM | 101 | 116 | 120
RPMI 5 mM glucose + 10% FBS, 1.71 µM | 101 | 90.6 | 91.4
RPMI 5 mM glucose + 10% FBS, 5.12 µM | 96.2 | 84.8 | 112
RPMI 5 mM glucose + 10% FBS, 15.4 µM | 80.8 | 91.6 | 71
RPMI 5 mM glucose + 10% FBS, 46.1 µM | 30.5 | 62.6 | 7.14
RPMI 5 mM glucose + 10% dialyzed FBS, 0.000781 µM | 99.1 | 93.1 | 107
RPMI 5 mM glucose + 10% dialyzed FBS, 0.00234 µM | 99.4 | 90.8 | 93.8
RPMI 5 mM glucose + 10% dialyzed FBS, 0.00702 µM | 110 | 108 | 85.1
RPMI 5 mM glucose + 10% dialyzed FBS, 0.0211 µM | 95.2 | 97.7 | 97.2
RPMI 5 mM glucose + 10% dialyzed FBS, 0.0632 µM | 102 | 103 | 97.5
RPMI 5 mM glucose + 10% dialyzed FBS, 0.19 µM | 101 | 94.3 | 96.3
RPMI 5 mM glucose + 10% dialyzed FBS, 0.569 µM | 103 | 121 | 101
RPMI 5 mM glucose + 10% dialyzed FBS, 1.71 µM | 99.1 | 101 | 116
RPMI 5 mM glucose + 10% dialyzed FBS, 5.12 µM | 96.8 | 101 | 99.1
RPMI 5 mM glucose + 10% dialyzed FBS, 15.4 µM | 85.5 | 91.7 | 59.8
RPMI 5 mM glucose + 10% dialyzed FBS, 46.1 µM | 21.8 | 56.5 | 7.1

AUC of viability dose-response curve
Conditions | [4] | [5] | [6]
HPLM + 10% dialyzed FBS | 465 | 446 | 435
RPMI 5 mM glucose + 10% FBS | 447 | 438 | 439
RPMI 5 mM glucose + 10% dialyzed FBS | 449 | 462 | 433
